# Measurements from patent publication US12643871B2, “Aryl formamide compound containing chiral sulfur oxide or salt thereof, preparation method, herbicidal composition and use thereof” (Qingdao Kingagroot Chemical Compound Co., Ltd., priority 2019, dated 2026).
# Key:
# Assay in all cases: Weeding effect in post-emergence stage
# Type in all cases: in vivo
# Details in all cases: 250 g/ha; 2 leaf stage; 15 days after application; fresh weight control rate
# Echinochloa crusgali = system: Echinochloa crusgali
# Outline: (§1)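 Activity graded 0 (<5%) to 5 (>85%) from fresh-weight control rate, averaged over three repeats, 15 days after a spray-tower application. Plants at 2-leaf stage (2 weeks post-sowing) received 15–500 g/ha of compound formulated in acetone, Tween 80 and methyl oleate synergist (1.5 L/ha).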
# Setaria viridis = system: Setaria viridis
# Outline: as §1
# Amaranthus retroflexus = system: Amaranthus retroflexus
# Outline: as §1
# Digitaria sanguinalis = system: Digitaria sanguinalis
# Outline: as §1
# Abutilon theophrasti = system: Abutilon theophrasti
# Outline: as §1
Compound,"weeding effect in post-emergence stage, activity level (growth control rate), Echinochloa crusgali (Echinochloa crusgali)","weeding effect in post-emergence stage, activity level (growth control rate), Setaria viridis (Setaria viridis)","weeding effect in post-emergence stage, activity level (growth control rate), Amaranthus retroflexus (Amaranthus retroflexus)","weeding effect in post-emergence stage, activity level (growth control rate), Digitaria sanguinalis (Digitaria sanguinalis)","weeding effect in post-emergence stage, activity level (growth control rate), Abutilon theophrasti (Abutilon theophrasti)"
CCCOc1c(C(=O)Nc2nnc(C)o2)ccc(C(F)(F)F)c1[S@+]([O-])CCC [Compound 533],5 (Level 5: growth control rate is above 85%),5 (Level 5: growth control rate is above 85%),5 (Level 5: growth control rate is above 85%),5 (Level 5: growth control rate is above 85%),5 (Level 5: growth control rate is above 85%)
CCC[S@@+]([O-])c1c(C(F)(F)F)ccc(C(=O)Nc2nnc(C)o2)c1OC(C)C [Compound 534],5 (Level 5: growth control rate is above 85%),5 (Level 5: growth control rate is above 85%),5 (Level 5: growth control rate is above 85%),5 (Level 5: growth control rate is above 85%),5 (Level 5: growth control rate is above 85%)
CCCCOc1c(C(=O)Nc2nnc(C)o2)ccc(C(F)(F)F)c1[S@+]([O-])CCC [Compound 535],5 (Level 5: growth control rate is above 85%),5 (Level 5: growth control rate is above 85%),5 (Level 5: growth control rate is above 85%),5 (Level 5: growth control rate is above 85%),5 (Level 5: growth control rate is above 85%)
CCC[S@@+]([O-])c1c(C(F)(F)F)ccc(C(=O)Nc2nnc(C)o2)c1Cl [Compound 543],5 (Level 5: growth control rate is above 85%),5 (Level 5: growth control rate is above 85%),5 (Level 5: growth control rate is above 85%),5 (Level 5: growth control rate is above 85%),5 (Level 5: growth control rate is above 85%)
CSc1c(C(=O)Nc2nnc(C)o2)ccc(C(F)(F)F)c1[S@+]([O-])CC(C)C [Compound 551],5 (Level 5: growth control rate is above 85%),5 (Level 5: growth control rate is above 85%),5 (Level 5: growth control rate is above 85%),5 (Level 5: growth control rate is above 85%),5 (Level 5: growth control rate is above 85%)
C#CC[S@@+]([O-])c1c(C(F)(F)F)ccc(C(=O)Nc2nnc(C)o2)c1SC [Compound 553],5 (Level 5: growth control rate is above 85%),5 (Level 5: growth control rate is above 85%),5 (Level 5: growth control rate is above 85%),5 (Level 5: growth control rate is above 85%),5 (Level 5: growth control rate is above 85%)
CSc1c(C(=O)Nc2nnc(C)o2)ccc(C(F)(F)F)c1[S@+]([O-])CCF [Compound 555],5 (Level 5: growth control rate is above 85%),5 (Level 5: growth control rate is above 85%),5 (Level 5: growth control rate is above 85%),5 (Level 5: growth control rate is above 85%),5 (Level 5: growth control rate is above 85%)
CSc1c(C(=O)Nc2nnc(C)o2)ccc(C(F)(F)F)c1[S@+]([O-])CC(F)(F)F [Compound 556],5 (Level 5: growth control rate is above 85%),5 (Level 5: growth control rate is above 85%),5 (Level 5: growth control rate is above 85%),5 (Level 5: growth control rate is above 85%),5 (Level 5: growth control rate is above 85%)
CSc1c(C(=O)Nc2nnc(C)o2)ccc(C(F)(F)F)c1[S@+]([O-])CC(C)F (some centres unmarked) [Compound 557],5 (Level 5: growth control rate is above 85%),5 (Level 5: growth control rate is above 85%),5 (Level 5: growth control rate is above 85%),5 (Level 5: growth control rate is above 85%),5 (Level 5: growth control rate is above 85%)
CSc1c(C(=O)Nc2nnc(C)o2)ccc(C(F)(F)F)c1[S@+]([O-])CC(F)F [Compound 558],5 (Level 5: growth control rate is above 85%),5 (Level 5: growth control rate is above 85%),5 (Level 5: growth control rate is above 85%),5 (Level 5: growth control rate is above 85%),5 (Level 5: growth control rate is above 85%)
CSc1c(C(=O)Nc2nnc(C)o2)ccc(C(F)(F)F)c1[S@+]([O-])CCC(F)(F)F [Compound 560],5 (Level 5: growth control rate is above 85%),5 (Level 5: growth control rate is above 85%),5 (Level 5: growth control rate is above 85%),5 (Level 5: growth control rate is above 85%),5 (Level 5: growth control rate is above 85%)
CSc1c(C(=O)Nc2nnc(C)o2)ccc(C(F)(F)F)c1[S@+]([O-])CCCC(F)(F)F [Compound 561],5 (Level 5: growth control rate is above 85%),5 (Level 5: growth control rate is above 85%),5 (Level 5: growth control rate is above 85%),5 (Level 5: growth control rate is above 85%),5 (Level 5: growth control rate is above 85%)
CSc1c(C(=O)Nc2nnc(C)o2)ccc(C(F)(F)F)c1[S@+]([O-])CCCl [Compound 562],5 (Level 5: growth control rate is above 85%),5 (Level 5: growth control rate is above 85%),5 (Level 5: growth control rate is above 85%),5 (Level 5: growth control rate is above 85%),5 (Level 5: growth control rate is above 85%)
CSc1c(C(=O)Nc2nnc(C)o2)ccc(C(F)(F)F)c1[S@+]([O-])CCCCl [Compound 563],5 (Level 5: growth control rate is above 85%),5 (Level 5: growth control rate is above 85%),5 (Level 5: growth control rate is above 85%),5 (Level 5: growth control rate is above 85%),5 (Level 5: growth control rate is above 85%)
CSc1c(C(=O)Nc2nnc(C)o2)ccc(C(F)(F)F)c1[S@+]([O-])CC#N [Compound 564],5 (Level 5: growth control rate is above 85%),5 (Level 5: growth control rate is above 85%),5 (Level 5: growth control rate is above 85%),5 (Level 5: growth control rate is above 85%),5 (Level 5: growth control rate is above 85%)
COCC[S@@+]([O-])c1c(C(F)(F)F)ccc(C(=O)Nc2nnc(C)o2)c1SC [Compound 565],5 (Level 5: growth control rate is above 85%),5 (Level 5: growth control rate is above 85%),5 (Level 5: growth control rate is above 85%),5 (Level 5: growth control rate is above 85%),5 (Level 5: growth control rate is above 85%)
